Test results reported in paper PMC12045974, “T cell toxicity induced by tigecycline binding to the mitochondrial ribosome” (Nature Communications, 2025).
Where “and” joins values, the source holds several entries; their conditions need not be identical. Equal values may be shown once. Read-outs that look alike come from different tables or passages of the source.

Assays:
PBMCs = assay: Cell viability assay (CCK-8), PBMCs; type: cell-based, human; settings: Homo sapiens, PBMC, 72 h, PBMCs, read-out: cell vialibity normalized to Vehicle (DMSO)
Description: Buffy coats were ordered from anonymous blood donors at […]. […] Cells were seeded in 96-well plates ranging from 2000 to 15,000 cells per well depending on different cell lines and treated with antibiotics in serial dilutions for 72 h (120 h for the preliminary assays) in a humidified incubator (37 °C, 5% CO2) in 100 μl medium (DMEM with 10% FBS, 2.05 mM L-glutamine (Sigma) for Hek293 and Hela; RPMI-1640 with 10% FBS, 2.05 mM L-glutamine (Sigma), and 55 μM 2-ME (Gibco) for Jurkat T cells and PBMCs). Based on preliminary tests, the number of cells per well was optimized to 2000 for Hela and Hek293, 6000 for Jurkat T cells, and 15,000 for PBMCs. The stocks of antibiotics were prepared by dissolving in DMSO. As control, the same amount of DMSO was added to the non-treated groups. Serial drug dilutions were prepared in the corresponding medium to provide a total of 9 concentrations up to 300 μM for tetracyclines and up to 900 μM for additional bacterial protein synthesis inhibitors. After drug treatment, 10% CCK-8 (Cell Counting Kit-8, Sigma Aldrich) (10 μl per well) of the total volume was added to the cells and incubated for 1-4 h depending on cell lines (1 h for Hela and Hek293; 3 h for Jurkat T cells; 4 h for PBMCs) before the evaluation of the effect of antibiotics on cell viability. […] Results were visually confirmed under the light microscope. Each treatment was performed in technical repeats. Dose-response curves were plotted, mean ± SEM was shown, and half maximal inhibitory concentration (IC50) values were calculated in GraphPad Prism.

Jurkat T cells = assay: Cell viability assay (CCK-8), Jurkat T cells; type: cell-based, human; settings: for cell vialibity normalized to Vehicle (DMSO): in % (unit assumed)
In short: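 This CCK-8 viability assay used Jurkat T cells seeded at 6000 per well and grown in supplemented RPMI-1640, 100 μl per well. Antibiotic stocks in DMSO were diluted in medium to give 9 concentrations, and untreated wells received matching DMSO. After treatment, cells were incubated with 10% CCK-8 for 3 h. Results were normalized to vehicle, technical repeats were plotted as mean ± SEM, and IC50 values were derived.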

HeLa cells = assay: Cell viability assay (CCK-8), HeLa cells; type: cell-based; settings: in % (unit assumed)
Description: Cells were seeded in 96-well plates ranging from 2000 to 15,000 cells per well depending on different cell lines and treated with antibiotics in serial dilutions for 72 h (120 h for the preliminary assays) in a humidified incubator (37 °C, 5% CO2) in 100 μl medium (DMEM with 10% FBS, 2.05 mM L-glutamine (Sigma) for Hek293 and Hela; RPMI-1640 with 10% FBS, 2.05 mM L-glutamine (Sigma), and 55 μM 2-ME (Gibco) for Jurkat T cells and PBMCs). Based on preliminary tests, the number of cells per well was optimized to 2000 for Hela and Hek293, 6000 for Jurkat T cells, and 15,000 for PBMCs. The stocks of antibiotics were prepared by dissolving in DMSO. As control, the same amount of DMSO was added to the non-treated groups. Serial drug dilutions were prepared in the corresponding medium to provide a total of 9 concentrations up to 300 μM for tetracyclines and up to 900 μM for additional bacterial protein synthesis inhibitors. After drug treatment, 10% CCK-8 (Cell Counting Kit-8, Sigma Aldrich) (10 μl per well) of the total volume was added to the cells and incubated for 1–4 h depending on cell lines (1 h for Hela and Hek293; 3 h for Jurkat T cells; 4 h for PBMCs) before the evaluation of the effect of antibiotics on cell viability. […] Results were visually confirmed under the light microscope. Each treatment was performed in technical repeats. Dose-response curves were plotted, mean ± SEM was shown, and half maximal inhibitory concentration (IC50) values were calculated in GraphPad Prism.

[1] = test system: mitochondrial translation; assay: 35S metabolic labeling, de novo mitochondrial translation assay in Jurkat T cells; type: cell-based, human; settings: 5 μM, 18 h of treatment
Description: Jurkat T cells were seeded in 6-well plates at a density of 1 million cells/ml and cultured with different concentrations of antibiotics for 18 h in RPMI-1640 medium (with 10% FBS, 2.05 mM L-glutamine (Sigma), and 55 μM 2-ME (Gibco)). After centrifugation, cells were incubated twice for 5 min at 37 °C in Cys-/Met-free medium (DMEM, high glucose, no glutamine, no methionine, no cysteine, supplemented with 10% dialyzed fetal bovine serum, 1× GlutaMax, and sodium pyruvate), followed by 20 min incubation at 37 °C in Cys-/Met-free medium supplemented with 100 µg/ml emetine to inhibit cytosolic translation (only for mitochondrial translation groups). Subsequently, 1 ml Cys-/Met-free medium supplemented with 200 (for cytosolic translation) or 400 µCi (for mitochondrial translation) of EasyTag EXPRESS [^35S] protein labeling mix (methionine and cysteine) (Perkin Elmer) were added to each sample and incubated for 20 min at 37 °C, 5% CO2. Following labeling, cells were washed three times with 1 ml PBS, harvested by centrifugation (400 × g, 10 min, 4 °C), and stored at −20 °C. Cells were lysed by resuspension in 30 µl PBS supplemented with a Complete EDTA-free protease inhibitor cocktail and 50 U Benzonase nuclease (Sigma) and by application of one freeze-thaw cycle. Protein contents were determined by Pierce BCA assay (Thermo Fisher). […]

C[C@H]1c2cccc(O)c2C(=O)C2=C(O)[C@]3(O)C(=O)C(C(N)=O)=C(O)[C@@H](N(C)C)[C@@H]3[C@@H](O)[C@@H]21 [Doxycycline, doxycycline]
viability at 0.0457247 µM (PBMCs; dose 0.0457247 μM, Fig. 1A): 105%
viability at 0.137174 µM (PBMCs; dose 0.137174 μM, Fig. 1A): 100%
viability at 0.411523 µM (PBMCs; Fig. 1A): 101%
viability at 0.411523 µM (PBMCs; Fig. 1B): 103%
viability at 3.7037 µM (PBMCs; Fig. 1A): 103%
viability at 3.7037 µM (PBMCs; Fig. 1B): 135%
viability at 33.3333 µM (PBMCs; Fig. 1A): 89.9%
viability at 33.3333 µM (PBMCs; Fig. 1B): 19.7%
viability at 100 µM (PBMCs; dose 100 μM, Fig. 1A): 34.7%
IC50 (Jurkat T cells; Homo sapiens, 120 h, Jurkat T cells, after 5 days, read-out: IC50 (cell survival)): 6.93 µM
cell vialibity normalized to Vehicle (DMSO) (Jurkat T cells; Jurkat 3d, dose 1 μM): 102.781 and 111.139 and 99.3878 and 96.4732 and 90.2582
cell vialibity normalized to Vehicle (DMSO) (Jurkat T cells; Jurkat 3d, dose 5 μM): 115.784 and 120.149 and 111.073 and 98.3364 and 101.664
cell vialibity normalized to Vehicle (DMSO) (Jurkat T cells; Jurkat 3d, dose 10 μM): 38.4083 and 33.5773 and 30.3966 and 27.7083 and 36.9178
cell vialibity normalized to Vehicle (DMSO) (Jurkat T cells; Jurkat 3d, dose 50 μM): 15.6109 and 16.1964 and 17.4075 and 16.8885 and 14.799
cell vialibity normalized to Vehicle (DMSO) (Jurkat T cells; Jurkat 3d, dose 100 μM): 22.9705 and 21.6928 and 21.7195 and 21.0407 and 21.5331
cell vialibity normalized to Vehicle (DMSO) (Jurkat T cells; Jurkat 5d, dose 1 μM): 114.324 and 76.849 and 78.0026 and 73.9947 and 75.2933
cell vialibity normalized to Vehicle (DMSO) (Jurkat T cells; Jurkat 5d, dose 5 μM): 77.1127 and 72.762 and 88.7937 and 109.835 and 79.8088
cell vialibity normalized to Vehicle (DMSO) (Jurkat T cells; Jurkat 5d, dose 10 μM): 12.7884 and 10.534 and 11.8194 and 11.8853 and 12.2149
cell vialibity normalized to Vehicle (DMSO) (Jurkat T cells; Jurkat 5d, dose 50 μM): 9.394 and 7.97 and 7.877 and 8.029 and 7.9499
cell vialibity normalized to Vehicle (DMSO) (Jurkat T cells; Jurkat 5d, dose 100 μM): 12.3797 and 14.0541 and 16.7699 and 13.5333 and 13.3553
cell vialibity normalized to Vehicle (DMSO) (Jurkat T cells; Jurkat, 72 h, dose 0.0457247 μM, Fig. 1A): 104.061 and 104.425 and 103.549
cell vialibity normalized to Vehicle (DMSO) (Jurkat T cells; Jurkat, 72 h, dose 0.137174 μM, Fig. 1A): 102.734 and 100.282 and 102.099
cell vialibity normalized to Vehicle (DMSO) (Jurkat T cells; Jurkat, 72 h, dose 0.411523 μM, Fig. 1A): 102.372 and 108.487 and 106.988
cell vialibity normalized to Vehicle (DMSO) (Jurkat T cells; Jurkat, 72 h, dose 1.23457 μM, Fig. 1A): 101.608 and 103.54 and 101.759
cell vialibity normalized to Vehicle (DMSO) (Jurkat T cells; Jurkat, 72 h, dose 3.7037 μM, Fig. 1A): 101.93 and 103.62 and 98.3642
cell vialibity normalized to Vehicle (DMSO) (Jurkat T cells; Jurkat, 72 h, dose 11.1111 μM, Fig. 1A): 87.2939 and 95.2132 and 89.0432
cell vialibity normalized to Vehicle (DMSO) (Jurkat T cells; Jurkat, 72 h, dose 33.3333 μM, Fig. 1A): 14.5557 and 15.5672 and 13.1235
cell vialibity normalized to Vehicle (DMSO) (Jurkat T cells; Jurkat, 72 h, dose 100 μM, Fig. 1A): 5.107 and 4.7868 and 3.556
cell vialibity normalized to Vehicle (DMSO) (HeLa cells; Hela 3d, dose 1 μM): 90.6648 and 96.338 and 89.6672 and 89.6605 and 88.6496
cell vialibity normalized to Vehicle (DMSO) (HeLa cells; Hela 3d, dose 5 μM): 84.5992 and 86.2752 and 82.4709 and 76.6381 and 79.4714
cell vialibity normalized to Vehicle (DMSO) (HeLa cells; Hela 3d, dose 10 μM): 79.4248 and 81.7526 and 84.3598 and 79.9369 and 77.0704
cell vialibity normalized to Vehicle (DMSO) (HeLa cells; Hela 3d, dose 50 μM): 73.5987 and 75.9863 and 80.8614 and 86.3816 and 72.8139
cell vialibity normalized to Vehicle (DMSO) (HeLa cells; Hela 3d, dose 100 μM): 66.9345 and 67.3003 and 64.2675 and 62.1126 and 67.4466
cell vialibity normalized to Vehicle (DMSO) (HeLa cells; Hela 5d, dose 1 μM): 99.6093 and 93.5325 and 94.7977 and 102.368 and 101.019
cell vialibity normalized to Vehicle (DMSO) (HeLa cells; Hela 5d, dose 5 μM): 109.557 and 87.6871 and 94.9961 and 97.211 and 96.619
cell vialibity normalized to Vehicle (DMSO) (HeLa cells; Hela 5d, dose 10 μM): 94.5723 and 89.5534 and 92.3875 and 106.137 and 99.0323
cell vialibity normalized to Vehicle (DMSO) (HeLa cells; Hela 5d, dose 50 μM): 75.251 and 76.5432 and 75.1938 and 78.2863 and 73.7483
cell vialibity normalized to Vehicle (DMSO) (HeLa cells; Hela 5d, dose 100 μM): 73.589 and 66.6556 and 71.8609 and 76.0624 and 69.5949
inhibition of mitochondrial translation [1]: weaker inhibition
